Results: US9034943B2, “Salts of dehydroacetic acid as a pyrithione stabilizer in plastics” (LONZA LTD, priority 2009, dated 2015)
Like-named read-outs stand apart in the source and are kept apart here.

Assays:
[1] = Procedure: Zinc dehydroacetate and zinc pyrithione were mixed with filled and clear commercial flexible polyvinyl chloride (PVC) compounds. The mixtures were extruded using an intermeshing modular co-rotating twin screw extruder to form flexible PVC compounds. […] Following extrusion, the flexible PVC compounds were cooled. Once cooling was complete, the flexible PVC compounds were pressed at 185° C. to form plastic sheets.
Zinc pyrithione was mixed with filled and clear commercial flexible polyvinyl chloride (PVC) compounds. The mixtures were extruded using an intermeshing modular co-rotating twin screw extruder to form flexible PVC compounds. […] Following extrusion, the flexible PVC compounds were cooled. Once cooling was complete, the flexible PVC compounds were pressed at 185° C. to form plastic sheets.
The weathering tester was set to a cycle of eight hours of ultraviolet A light (long wave) exposure and a four hour water condensation cycle in accordance with ASTM […]. After 1,000 hours of exposure, the plastic sheets were examined for color development.

[2] = tested on: Aspergillus niger ATCC 9642; Aureobasidium pullulans ATCC 15233; Chaetomium globosum ATCC 6205; Penicillium funiculosum ATCC 11797; Trichoderma virens ATCC …; experiment: Fungal resistance test, ASTM G21, on mineral salts agar; set-up: Zone of Inhibition: key to the marks not given beside the values; details: PVC samples inoculated with mixed fungi, 28° C., 4 weeks

zinc pyrithione
Color Rating of Clear FPVC ([1]; clear flexible PVC sheet, 0 hours QUV exposure): 0 | Color Rating of Clear FPVC ([1]; clear flexible PVC sheet, 1,000 hours QUV exposure (8 h UVA / 4 h condensation cycle)): 3 | Color Rating of Filled FPVC ([1]; filled flexible PVC sheet, 0 hours QUV exposure): 0 | Color Rating of Filled FPVC ([1]; filled flexible PVC sheet, 1,000 hours QUV exposure (8 h UVA / 4 h condensation cycle)): 4 | Fungal Growth Reading [2]: 0 | Zone of Inhibition [2]: ++
